Results published in BigSolDB 2.1.

CCC[C@@H]1CC(=O)N([C@@H](CC)C(N)=O)C1
solubility (mole fraction)
Details	278.15 K	283.15 K	288.15 K	293.15 K	298.15 K	303.15 K	308.15 K	313.15 K	318.15 K	323.15 K
in MTBE	0.00794	0.0117	0.0181	0.0331	0.0496	0.078	0.11	0.175	0.291	0.419
in diisopropyl ether	0.00075	0.00108	0.00235	0.00327	0.00513	0.00618	0.00879	0.0143	0.0205	0.0341
in ethanol	0.189	0.226	0.258	0.297	0.328	0.371	0.415	0.466	0.523	0.576
in ethyl acetate	0.0369	0.0541	0.0769	0.113	0.152	0.201	0.275	0.332	0.418	0.499
in ethyl formate	0.0887	0.113	0.142	0.18	0.224	0.279	0.33	0.393	0.465	0.519
in isopropanol	0.127	0.163	0.186	0.219	0.25	0.287	0.341	0.392	0.445	0.51
in isopropyl acetate	0.0322	0.0429	0.0625	0.0768	0.109	0.154	0.206	0.287	0.365	0.455
in methanol	0.234	0.275	0.309	0.337	0.367	0.416	0.445	0.497	0.557	0.61
in n-butyl acetate	0.0279	0.0337	0.0428	0.0577	0.0846	0.108	0.161	0.21	0.293	0.412
in n-heptane	1.02e-05	1.86e-05	3.36e-05	4.77e-05	8.17e-05	0.000113	0.000168	0.000249	0.000335	0.000493
in n-hexane	4.1e-05	6.64e-05	8.92e-05	0.000133	0.00018	0.000239	0.000324	0.000413	0.000524	0.000739
in n-propanol	0.137	0.17	0.204	0.245	0.28	0.318	0.365	0.412	0.475	0.52
